Assay results published in ChEMBL document CHEMBL1201862, “PubChem BioAssay data set” (2004).
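Compound exposure: 48 hours, 5 concentrations, 96-well plates. GI50: concentration for 50% inhibition of growth.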 Active and inactive are the calls of the source. No stated cut-off is given here; in the data, active = GI50 up to about 1.1 µM and inactive = higher.

Assays:
Experiment in all cases: NCI anticancer screen, dose series, 48 h
[1] = system: NCI-H226
[2] = system: UO-31
[3] = system: SF-539
[4] = system: SNB-75
[5] = system: NCI-H23
[6] = system: UACC-62
[7] = system: DLD-1
[8] = system: M14
[9] = system: SK-MEL-5
[10] = system: A549
[11] = system: SF-295
[12] = system: MOLT-4
[13] = system: DMS-273
[14] = system: OVCAR-3
[15] = system: M19-MEL
[16] = system: NCI-H522
[17] = system: RPMI-8226
[18] = system: HCT-15
[19] = system: EKVX
[20] = system: UACC-257
[21] = system: IGROV-1
[22] = system: CAKI-1
[23] = system: K562
[24] = system: LOX IMVI
[25] = system: TK-10
[26] = system: SN12C
[27] = system: HL-60
[28] = system: OVCAR-8
[29] = system: CCRF-CEM
[30] = system: SNB-78
[31] = system: SK-MEL-28
[32] = system: SW-620
[33] = system: HT-29
[34] = system: SF-268
[35] = system: SNB-19
[36] = system: RXF 393
[37] = system: HCC 2998
[38] = system: KM12
[39] = system: XF498
[40] = system: LXFL 529
[41] = system: Malme-3M
[42] = system: HOP-62
[43] = system: SK-OV-3
[44] = system: 786-0
[45] = system: DMS-114
[46] = system: SK-MEL-2
[47] = system: COLO 205
[48] = system: U-251
[49] = system: HCT-116
[50] = system: A498
[51] = system: ACHN
[52] = system: OVCAR-5
[53] = system: HOP-92
[54] = system: NCI-H460
[55] = system: OVCAR-4
[56] = system: HOP-18
[57] = system: SR
[58] = system: KM-20L2

Structure (SMILES): CC1(C)c2ccccc2N2O[C@@H]3C(=O)N(c4ccccc4)C(=O)[C@@H]3C21c1ccccc1 (stereo partly specified)
- GI50 [1]: > 100 µM (inactive)
- GI50 [2]: > 100 µM (inactive)
- GI50 [3]: > 100 µM (inactive)
- GI50 [4]: 84.1 µM (inactive)
- GI50 [5]: > 100 µM (inactive)
- GI50 [6]: > 100 µM (inactive)
- GI50 [7]: > 100 µM (inactive)
- GI50 [8]: > 100 µM (inactive)
- GI50 [9]: > 100 µM (inactive)
- GI50 [10]: > 100 µM (inactive)
- GI50 [11]: > 100 µM (inactive)
- GI50 [12]: 47.8 µM (inactive)
- GI50 [13]: > 100 µM (inactive)
- GI50 [14]: > 100 µM (inactive)
- GI50 [15]: > 100 µM (inactive)
- GI50 [16]: 41.1 µM (inactive)
- GI50 [17]: 57.7 µM (inactive)
- GI50 [18]: > 100 µM
- GI50 [19]: > 100 µM (inactive)
- GI50 [20]: > 100 µM (inactive)
- GI50 [21]: > 100 µM (inactive)
- GI50 [22]: > 100 µM (inactive)
- GI50 [23]: 56.4 µM (inactive)
- GI50 [24]: > 100 µM (inactive)
- GI50 [25]: > 100 µM (inactive)
- GI50 [26]: > 100 µM (inactive)
- GI50 [27]: 30.8 µM (inactive)
- GI50 [28]: > 100 µM (inactive)
- GI50 [29]: 52.8 µM (inactive)
- GI50 [30]: > 100 µM (inactive)
- GI50 [31]: > 100 µM (inactive)
- GI50 [32]: > 100 µM (inactive)
- GI50 [33]: > 100 µM (inactive)
- GI50 [34]: > 100 µM (inactive)
- GI50 [35]: > 100 µM (inactive)
- GI50 [36]: 14.6 µM (inactive)
- GI50 [37]: > 100 µM (inactive)
- GI50 [38]: > 100 µM (inactive)
- GI50 [39]: > 100 µM (inactive)
- GI50 [40]: > 100 µM (inactive)
- GI50 [41]: > 100 µM (inactive)
- GI50 [42]: > 100 µM (inactive)
- GI50 [43]: > 100 µM (inactive)
- GI50 [44]: > 100 µM (inactive)
- GI50 [45]: > 100 µM (inactive)
- GI50 [46]: > 100 µM (inactive)
- GI50 [47]: > 100 µM (inactive)

Structure (SMILES): CC(=O)CCCCO
- GI50 [2]: > 100 µM (inactive)
- GI50 [3]: > 100 µM (inactive)
- GI50 [4]: > 100 µM (inactive)
- GI50 [48]: > 100 µM (inactive)
- GI50 [49]: > 100 µM (inactive)
- GI50 [5]: > 100 µM (inactive)
- GI50 [6]: > 100 µM (inactive)
- GI50 [50]: > 100 µM (inactive)
- GI50 [51]: > 100 µM (inactive)
- GI50 [8]: > 100 µM (inactive)
- GI50 [9]: > 100 µM (inactive)
- GI50 [10]: > 100 µM (inactive)
- GI50 [11]: > 100 µM (inactive)
- GI50 [12]: > 100 µM (inactive)
- GI50 [13]: > 100 µM (inactive)
- GI50 [14]: > 100 µM (inactive)
- GI50 [15]: > 100 µM (inactive)
- GI50 [16]: > 100 µM (inactive)
- GI50 [17]: > 100 µM (inactive)
- GI50 [18]: > 100 µM
- GI50 [19]: > 100 µM (inactive)
- GI50 [20]: > 100 µM (inactive)
- GI50 [21]: > 100 µM (inactive)
- GI50 [22]: > 100 µM (inactive)
- GI50 [23]: > 100 µM (inactive)
- GI50 [24]: > 100 µM (inactive)
- GI50 [25]: > 100 µM (inactive)
- GI50 [26]: > 100 µM (inactive)
- GI50 [27]: > 100 µM (inactive)
- GI50 [28]: > 100 µM (inactive)
- GI50 [29]: > 100 µM (inactive)
- GI50 [30]: > 100 µM (inactive)
- GI50 [31]: > 100 µM (inactive)
- GI50 [32]: > 100 µM (inactive)
- GI50 [33]: > 100 µM (inactive)
- GI50 [34]: > 100 µM (inactive)
- GI50 [52]: > 100 µM (inactive)
- GI50 [53]: > 100 µM (inactive)
- GI50 [35]: > 100 µM (inactive)
- GI50 [36]: > 100 µM (inactive)
- GI50 [38]: > 100 µM (inactive)
- GI50 [39]: > 100 µM (inactive)
- GI50 [40]: > 100 µM (inactive)
- GI50 [41]: > 100 µM (inactive)
- GI50 [54]: > 100 µM (inactive)
- GI50 [55]: > 100 µM (inactive)
- GI50 [42]: > 100 µM (inactive)
- GI50 [43]: > 100 µM (inactive)
- GI50 [44]: > 100 µM (inactive)
- GI50 [45]: > 100 µM (inactive)
- GI50 [46]: > 100 µM (inactive)
- GI50 [47]: > 100 µM (inactive)

Structure (SMILES): CCCCCCC(=O)C/C(CCC(=O)N(Cc1ccccc1)Cc1ccccc1)=N\Nc1ccc([N+](=O)[O-])cc1[N+](=O)[O-]
- GI50 [1]: > 100 µM (inactive)
- GI50 [2]: 51.6 µM (inactive)
- GI50 [3]: 54.5 µM (inactive)
- GI50 [4]: 39.1 µM (inactive)
- GI50 [48]: 54.1 µM (inactive)
- GI50 [49]: 35.1 µM (inactive)
- GI50 [5]: 38.7 µM (inactive)
- GI50 [6]: 16.2 µM (inactive)
- GI50 [7]: 42 µM (inactive)
- GI50 [50]: 62.8 µM (inactive)
- GI50 [51]: 27.3 µM (inactive)
- GI50 [8]: 57.8 µM (inactive)
- GI50 [9]: 55.5 µM (inactive)
- GI50 [10]: 46.1 µM (inactive)
- GI50 [56]: 55.1 µM (inactive)
- GI50 [11]: 55.1 µM (inactive)
- GI50 [12]: > 10 µM (inactive)
- GI50 [13]: 55.8 µM (inactive)
- GI50 [14]: 35.4 µM (inactive)
- GI50 [15]: 55.7 µM (inactive)
- GI50 [16]: 23.7 µM (inactive)
- GI50 [17]: 31.9 µM (inactive)
- GI50 [18]: 42.5 µM
- GI50 [19]: 29.1 µM (inactive)
- GI50 [20]: 48 µM (inactive)
- GI50 [21]: > 100 µM (inactive)
- GI50 [22]: > 100 µM (inactive)
- GI50 [23]: 20.3 µM (inactive)
- GI50 [24]: 33.3 µM (inactive)
- GI50 [25]: > 100 µM (inactive)
- GI50 [26]: 56.1 µM (inactive)
- GI50 [27]: 32.2 µM (inactive)
- GI50 [28]: 54.7 µM (inactive)
- GI50 [57]: > 10 µM (inactive)
- GI50 [29]: 17.3 µM (inactive)
- GI50 [30]: > 100 µM (inactive)
- GI50 [31]: 99.3 µM (inactive)
- GI50 [32]: 55.6 µM (inactive)
- GI50 [33]: 89.9 µM (inactive)
- GI50 [34]: 39.1 µM (inactive)
- GI50 [58]: 56.8 µM (inactive)
- GI50 [52]: > 100 µM (inactive)
- GI50 [53]: 51.1 µM (inactive)
- GI50 [35]: > 100 µM (inactive)
- GI50 [36]: > 100 µM (inactive)
- GI50 [37]: 73.6 µM (inactive)
- GI50 [38]: 46 µM (inactive)
- GI50 [40]: 31 µM (inactive)
- GI50 [41]: > 100 µM (inactive)
- GI50 [54]: 71.1 µM (inactive)
- GI50 [55]: 40.1 µM (inactive)
- GI50 [42]: > 100 µM (inactive)
- GI50 [43]: > 100 µM (inactive)
- GI50 [44]: 58.5 µM (inactive)
- GI50 [45]: 17 µM (inactive)
- GI50 [46]: 83.4 µM (inactive)
- GI50 [47]: 41.1 µM (inactive)
